According to PubChem BioAssay (NCI):
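Five compound concentrations were applied to cells in 96-well plates for 48 hours; endpoints were derived by simple linear interpolation of the resulting dose-response curve. The concentration for full growth arrest is given as TGI.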 Where a SMILES comes first, the peptide text is derived from it. The star is where a group is joined. Cbz = O=C(OCc1ccccc1)*; OBn = c1ccc(CO*)cc1

Experiments:
Experiment in all cases: NCI tumour cell line growth inhibition, 48 h
EKVX NSCLC = system: EKVX NSCLC
OVCAR-4 ovarian = system: OVCAR-4 ovarian
SR leukemia = system: SR leukemia
T-47D breast = system: T-47D breast
HL-60(TB) leukemia = system: HL-60(TB) leukemia
786-0 renal = system: 786-0 renal
M14 melanoma = system: M14 melanoma
LOX IMVI melanoma = system: LOX IMVI melanoma
OVCAR-3 ovarian = system: OVCAR-3 ovarian
SK-OV-3 ovarian = system: SK-OV-3 ovarian

| Structure (SMILES) | TGI (EKVX NSCLC) [µM] | TGI (OVCAR-4 ovarian) [µM] | TGI (SR leukemia) [µM] | TGI (T-47D breast) [µM] | TGI (HL-60(TB) leukemia) [µM] | TGI (786-0 renal) [µM] | TGI (M14 melanoma) [µM] | TGI (LOX IMVI melanoma) [µM] | TGI (OVCAR-3 ovarian) [µM] | TGI (SK-OV-3 ovarian) [µM] |
| --- | --- | --- | --- | --- | --- | --- | --- | --- | --- | --- |
| C=C1C(=O)C([Si](C)(C)C)=C2C=C(C)C3(CC3)C12C (stereo unspecified) | 42.2 | > 100 | 11.7 | > 100 | 34.8 | > 100 | > 100 | 89 | > 100 | – |
| O=c1[nH]c(=O)n(C2OC(CO)C(O)C(F)C2O)cc1F (stereo unspecified) | – | > 100 | 76.4 | > 100 | > 100 | > 100 | > 100 | > 100 | > 100 | > 100 |
| COC(=O)CNC(=O)C(C)NC(=O)C(CC(=O)OCc1ccccc1)NC(=O)OCc1ccccc1 (stereo not drawn) (Cbz-Asp(OBn)-Ala-Gly-OMe; configuration not given here) | – | – | > 100 | 70.3 | – | > 100 | > 100 | – | > 100 | > 100 |
| O=c1n(/N=C/c2ccccc2)c(=O)n2n1C1C=CC2CC1 | > 100 | – | > 100 | > 100 | > 100 | > 100 | > 100 | > 100 | > 100 | > 100 |
| CCOC(=O)/C(N=Nc1ccc(-n2c(C)nc3ccccc3c2=O)cc1)=C(/C)O | > 100 | – | > 100 | 92.3 | 41.2 | > 100 | > 100 | > 100 | 53.1 | > 100 |
| NCCCCNCCCN1CC1 | 18.3 | 0.733 | 52.9 | 3.46 | 5.32 | 5.75 | > 100 | 3.46 | 8.98 | – |
| O=C1CSC2(CC(/C=C/c3ccccc3O)=NN2c2cccc(S(=O)(=O)O)c2)N1c1nc2ccccc2s1 (stereo unspecified) | > 100 | 88.5 | 49.5 | 65.4 | 49 | 98.7 | > 100 | 39.3 | – | – |
| CC(C)OP(=O)(OC(C)C)C(C(C)C)N(C)/C(N)=N\C1=NC(C(F)(F)F)(C(F)(F)F)N=C(C(C(F)(F)F)C(F)(F)F)O1 (stereo unspecified) | 16.1 | – | 14.2 | 31.3 | 4.16 | 12.4 | 4.23 | 3.77 | 31.6 | 19.8 |
| CCOC(=O)c1cc(Sc2ccc(N)c(C(=O)OCC)c2)ccc1N | > 100 | > 100 | > 100 | > 100 | > 100 | > 100 | > 100 | – | > 100 | > 100 |
| CCOC(=O)CCC(NC(=O)Cc1ccc(Nc2nc3ccccc3nc2-c2ccccc2)cc1)C(=O)OCC (stereo unspecified) | > 100 | > 100 | > 100 | > 100 | > 100 | > 100 | > 100 | > 100 | – | > 100 |
| O=C(c1ccc(Cl)cc1Cl)N(C(=O)N1CCC(c2ccccc2)CC1)c1ccccc1 | > 100 | – | > 100 | > 100 | – | > 100 | > 100 | > 100 | > 100 | > 100 |
| COc1cc(OCc2ccc3nc(-c4ccccc4)c(N)nc3c2)cc(OC)c1OC | 50.2 | 34.6 | 43.8 | 42.5 | 32.4 | 81.2 | 29.3 | 29.7 | 42.1 | – |
| CCOC(=O)C(c1c[nH]c2ccccc12)(c1c[nH]c2ccccc12)c1c[nH]c2ccccc12 | > 100 | – | 80 | 54.2 | 43.9 | > 100 | > 100 | > 100 | > 100 | > 100 |
| C[C@@]12C=CC3C/C(=N\C(N)=S)C=C(CCCC4OCCO4)[C@]3(CC1)C2 (stereo partly specified) | 40.6 | 99.2 | 60.7 | 57.9 | – | 57.1 | 30.9 | 31.1 | 39.3 | > 100 |
| COc1cc2c(/C=C3/C(=O)Nc4ccc(Cl)cc43)c(Cl)n(Cc3ccccc3)c2cc1C | – | – | 5.9 | 13.9 | 17.4 | 6.41 | 18.2 | > 100 | 4.83 | 4.41 |
| COc1ccccc1C1CC(=O)CC(c2ccccc2OC)C12C(=O)NC(=S)NC2=O (stereo unspecified) | > 100 | > 100 | > 100 | > 100 | 69.5 | > 100 | > 100 | > 100 | > 100 | – |
| C[C@H]1[C@H](C)N(Cc2ccccc2)P(=O)(C(O)/C=C/c2ccccc2)N1Cc1ccccc1 (stereo partly specified) | 24.9 | 15 | 20.5 | 22.9 | – | 10.9 | 9.05 | 14.5 | – | > 25 |
